Assay results as given in patent US8399672B2, “Compound having affinity for amyloid” (Nihon Medi-Physics Co., Ltd., priority 2007, dated 2013).

Experiments:
[1] = Measurement of transferability into brain and clearance (radioactive accumulation in brain after intravenous injection); type: in vivo, male Wistar rats; conditions: rats; for Radioactive accumulation in brain two minutes after the injection (in words): 2 min; for Radioactive accumulation per unit weight of brain, after 2 min.: 2 min after injection; for Radioactive accumulation per unit weight of brain, after 5 min.: 5 min after injection; for Radioactive accumulation per unit weight of brain, after 30 min.: 30 min after injection; for Radioactive accumulation per unit weight of brain, after 60 min.: 60 min after injection; for Clearance of radioactivity from brain (in words): up to 60 min
Method: Using Compounds 1, 2 and 3, a time course change of radioactive accumulation in brain of male Wistar rats (7-week old) was measured.
Compound 1 in 10 mg/mL ascorbic acid-containing physiological saline solution (24 MBq/mL in radioactive concentration), Compound 2 in 10 mg/mL ascorbic acid-containing physiological saline solution (30 MBq/mL in radioactive concentration), Compound 4 in 10 mg/mL ascorbic acid-containing physiological saline solution (32 MBq/mL in radioactive concentration) and Compound 3 in 10 mg/mL ascorbic acid-containing physiological saline solution (30 MBq/mL in radioactive concentration) were prepared to obtain sample solutions. The sample solutions were injected under thiopental anesthesia into the tail vein of the male Wistar rats (7-week old) (dosage: 0.05 mL, dosed radioactivity: 1.2-1.5 MBq equivalent). The rats were sacrificed by bleeding from abdominal artery, and brains were removed and subjected to measurement of mass of brains and further subjected to measurement of radioactivity (hereinafter referred to as A in this Example) with a single channel analyzer (detector type: SP-20 manufactured by OHYO KOKEN KOGYO Co., Ltd.) 2, 5, 30 and 60 minutes after the injection. Further, the radioactivity level of the rest of the whole body was measured in the same manner as above (hereinafter referred to as B in this Example). Using these measurement results, radioactive accumulation per unit weight of brain (% ID/g) at the respective time points of dissection was calculated in accordance with the following formula (2) (Examples 19 to 22).
Separately, [^123I]-IMPY in 10 mg/mL ascorbic acid-containing physiological saline solution (20-30 MBq/mL in radioactive concentration) was prepared, the same operation as above was conducted, and radioactive accumulation per unit weight of brain (% ID/g) at the respective time points of dissection was calculated (Comparative Example 2).
Meanwhile, three animals were used for Examples 19 to 22 and Comparative Example 2 at the respective time points.

[2] = molecular target: T1, amyloid in brain (aggregated Aβ1-42 injected into amygdaloid nucleus) (Homo sapiens, UniProt P05067); experiment: Confirmation of imaging of amyloid in brain (autoradiogram of brain slice after tail vein injection, Thioflavin T staining); type: in vivo, male Wistar rat; conditions: rat
T1 construct: Aβ1-42 (manufactured by Wako); purchased Wako
Method: (1) Aβ1-42 (manufactured by Wako) was dissolved in phosphate buffer (pH 7.4) and shaken at 37° C. for 72 hours, to obtain a 1 mg/mL suspension of aggregated Aβ (hereinafter referred to as amyloid suspension in the Examples).
(2) Under thiopental anesthesia, […] of the amyloid suspension was injected into an amygdaloid nucleus on one side of a male Wistar rat (7-week old). As a control, 2.5 μL of a phosphate buffered physiological saline solution (pH 7.4) was injected into an amygdaloid nucleus on the other side of the rat. The rats were examined 1 day after the injection of the amyloid suspension and the phosphate buffered physiological saline solution (pH 7.4).
(3) Compound 1 in a 10 mg/mL ascorbic acid-containing physiological saline solution (24 MBq/mL in radioactivity concentration), Compound 2 in a 10 mg/mL ascorbic acid-containing physiological saline solution (30 MBq/mL in radioactivity concentration) and Compound 4 in a 10 mg/mL ascorbic acid-containing physiological saline solution (32 MBq/mL in radioactivity concentration) were each prepared to obtain a sample solution. This sample solution was injected under thiopental anesthesia into the rat through the tail vein (dosage: 0.5 mL, dosed radioactivity: 12-15 MBq equivalent).
(4) Brain was removed 60 minutes after the injection to prepare a brain slice of 10 μm in thickness with a microtome (type: CM3050S, manufactured by LEICA). The brain slice was exposed to an imaging plate for 20 hours, and then image analysis was carried out by use of a Bio-imaging Analyzer (type: BAS-2500; manufactured by FUJIFILM Corporation).
(5) After the completion of the image analysis using the Bio-imaging Analyzer, pathological staining with Thioflavin T was carried out to perform imaging by use of a fluorescence microscope (manufactured by NIKON Corporation; type: TE2000-U model; excitation wavelength: 400-440 nm; detection wavelength: 470 nm). Thus, it was confirmed that amyloid was deposited on the slice (FIG. 10b, FIG. 11b and FIG. 12b).
The procedure was conducted in the same manner as in Example 23 except that a solution of Compound 3 in 10 mg/mL ascorbic acid-containing physiological saline solution (32 MBq/mL in radioactive concentration) was used as a sample solution, and a brain was removed 120 minutes after injection of the sample solution.

[3] = Measurement of partition coefficient based on the octanol extraction method (log Poctanol); type: physicochemical; conditions: octanol / 10 mmol/L phosphate buffer (pH 7.4); for logD: read-out: logPoctanol value
Method: Partition coefficients based on the octanol extraction method (hereinafter referred to as log Poctanol) were measured, which are generally known as an indicator of permeability of compounds through the blood-brain barrier (hereinafter referred to as BBB).
Each diethyl ether solution of Compound 1 (Example 15), Compound 2 (Example 16), Compound 3 (Example 17), Compound 4 (Example 18) and [^123I]-IMPY (Comparative Example 1) was each diluted with 10 mg/mL ascorbic acid-containing physiological saline solution, and adjusted to a radioactive concentration of 20-30 MBq/mL. To 2 mL of octanol, 10 μL each of the solutions was added, and 2 mL of 10 mmol/L phosphate buffer (pH 7.4) was added, followed by stirring for 30 seconds. After each mixture was centrifuged (2000 rpm×60 min.) with a low-speed centrifuge (type: CTD4, manufactured by Hitachi Koki, Co., Ltd.), the octanol layer and the water layer were sampled each in an amount of 1 mL, and subjected to measurement of radioactivity count with an autowell gamma system (Type: ARC-301B, manufactured by Aloka). Using the obtained radioactivity count, log Poctanol was calculated in accordance with the equation (1).

[4] = normal mice, [125I]-labeled, cited from earlier work; for Transfer into brain: 2 minutes after administration
[5] = brain removed 60 minutes after injection

T1 sequence (P05067 672-713): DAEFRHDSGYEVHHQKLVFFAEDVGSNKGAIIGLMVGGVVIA

| Compound | Radioactive accumulation in brain two minutes after the injection (in words) [1] | Radioactive accumulation per unit weight of brain, after 2 min. [1] [% ID/g] | Radioactive accumulation per unit weight of brain, after 5 min. [1] [% ID/g] | Radioactive accumulation per unit weight of brain, after 30 min. [1] [% ID/g] | Radioactive accumulation per unit weight of brain, after 60 min. [1] [% ID/g] | logD [3] | Clearance of radioactivity from brain (in words) [1] | Accumulation at intracerebral amyloid / capability of imaging intracerebral amyloid [2, 5] | Accumulation at intracerebral amyloid / capability of imaging intracerebral amyloid ([2]; brain removed 120 minutes after injection) | Transfer into brain [4] | Clearance from normal tissues [4] | logPoctanol value [3] |
| --- | --- | --- | --- | --- | --- | --- | --- | --- | --- | --- | --- | --- |
| CN(C)c1ccc(-c2nc3ccc(I)cc3o2)cc1 [IBOX, 6-iodo-2-[4′-(N,N-dimethylamino)phenyl]benzoxazole] |  |  |  |  |  |  |  |  |  | transferred into brain | insufficient in clearance from normal tissues |  |
| CN(C)c1ccc(-c2nc3ccc(I)cc3s2)cc1 [TZDM, 6-iodo-2-[4′-(N,N-dimethylamino)phenyl]benzothiazole] |  |  |  |  |  |  |  |  |  | transferred into brain | insufficient in clearance from normal tissues |  |
| CN(C)c1ccc(-c2cn3cc([123I])ccc3n2)cc1 [[^123I]-IMPY, reference compound] |  | 1.19 | 0.97 | 0.23 | 0.09 |  |  |  |  |  |  | 1.9 |
| CN(C)c1ccc(/C=C/c2ccc(I)cc2)cc1 [m-I-SB, (E)-4-dimethylamino-4′-iodostilbene] |  |  |  |  |  |  |  |  |  | transferred into brain | insufficient in clearance from normal tissues |  |

Continued, in another order:

| Radioactive accumulation in brain two minutes after the injection (in words) [1] | Radioactive accumulation per unit weight of brain, after 2 min. [1] [% ID/g] | Radioactive accumulation per unit weight of brain, after 5 min. [1] [% ID/g] | Radioactive accumulation per unit weight of brain, after 30 min. [1] [% ID/g] | Radioactive accumulation per unit weight of brain, after 60 min. [1] [% ID/g] | logD [3] | Compound | Clearance of radioactivity from brain (in words) [1] | Accumulation at intracerebral amyloid / capability of imaging intracerebral amyloid [2, 5] | Accumulation at intracerebral amyloid / capability of imaging intracerebral amyloid ([2]; brain removed 120 minutes after injection) | Transfer into brain [4] | Clearance from normal tissues [4] | logPoctanol value [3] |
| --- | --- | --- | --- | --- | --- | --- | --- | --- | --- | --- | --- | --- |
| significant radioactive accumulation | 0.74 | 0.53 | 0.11 | 0.03 | 2.3 | COc1ccc2nc(-c3ccc(OCCCF)c([123I])c3)cn2c1 [Compound 1, 2-[4′-(3″-fluoropropoxy)-3′-[^123I]iodophenyl]-6-methoxyimidazo[1,2-a]pyridine] | tendency to rapidly clear away in 60 minutes | property of accumulating at intracerebral amyloid |  |  |  |  |
| significant radioactive accumulation | 0.42 | 0.26 | 0.04 | 0.02 | 1.8 | COc1cc(-c2cn3cc([123I])ccc3n2)ccc1OCCF [Compound 2, 2-[4′-(2″-fluoroethoxy)-3′-methoxyphenyl]-6-[^123I]iodoimidazo[1,2-a]pyridine] | tendency to rapidly clear away in 60 minutes | property of accumulating at intracerebral amyloid |  |  |  |  |
| significant radioactive accumulation | 0.70 | 0.53 | 0.08 | 0.03 | 2.6 | COc1ccc2nc(-c3ccc(OCCF)c([123I])c3)cn2c1 [Compound 3, 2-[4′-(2″-fluoroethoxy)-3′-[^123I]iodophenyl]-6-methoxyimidazo[1,2-a]pyridine] | tendency to rapidly clear away in 60 minutes |  | property of accumulating at intracerebral amyloid |  |  |  |
| significant radioactive accumulation | 0.80 | 0.61 | 0.12 | 0.03 | 2.7 | Cc1cc2nc(-c3ccc(OCCO)cc3)cn2cc1[123I] [Compound 4, 2-[4′-(2″-hydroxyethoxy)phenyl]-6-[^123I]iodo-7-methylimidazo[1,2-a]pyridine] | tendency to rapidly clear away in 60 minutes | property of accumulating at intracerebral amyloid |  |  |  |  |
